Data taken from publication PMC3103407 (2011).

T1: Gap1p (Saccharomyces cerevisiae, UniProt P19145, A297V/K16R/K9R)
T1 sequence (P19145 1-602 K9R/K16R/A297V): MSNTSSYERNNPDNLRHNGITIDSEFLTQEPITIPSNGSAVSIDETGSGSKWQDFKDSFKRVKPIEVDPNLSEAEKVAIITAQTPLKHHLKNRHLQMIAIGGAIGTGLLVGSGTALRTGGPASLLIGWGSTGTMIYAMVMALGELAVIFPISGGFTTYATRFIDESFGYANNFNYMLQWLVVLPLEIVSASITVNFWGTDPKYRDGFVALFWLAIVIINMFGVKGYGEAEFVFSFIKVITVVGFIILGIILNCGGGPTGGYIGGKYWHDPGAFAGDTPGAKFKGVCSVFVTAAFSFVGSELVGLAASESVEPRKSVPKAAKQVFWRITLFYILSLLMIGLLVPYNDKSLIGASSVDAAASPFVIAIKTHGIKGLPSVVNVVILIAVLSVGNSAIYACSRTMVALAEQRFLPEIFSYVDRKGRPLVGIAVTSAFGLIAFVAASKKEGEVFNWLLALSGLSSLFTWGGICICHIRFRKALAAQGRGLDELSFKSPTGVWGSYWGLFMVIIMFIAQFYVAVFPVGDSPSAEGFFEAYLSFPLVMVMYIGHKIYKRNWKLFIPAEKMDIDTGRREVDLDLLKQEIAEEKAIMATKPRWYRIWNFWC

T2: Gap1p (Saccharomyces cerevisiae, UniProt P19145, K16R/K9R)
T2 sequence (P19145 1-602 K9R/K16R): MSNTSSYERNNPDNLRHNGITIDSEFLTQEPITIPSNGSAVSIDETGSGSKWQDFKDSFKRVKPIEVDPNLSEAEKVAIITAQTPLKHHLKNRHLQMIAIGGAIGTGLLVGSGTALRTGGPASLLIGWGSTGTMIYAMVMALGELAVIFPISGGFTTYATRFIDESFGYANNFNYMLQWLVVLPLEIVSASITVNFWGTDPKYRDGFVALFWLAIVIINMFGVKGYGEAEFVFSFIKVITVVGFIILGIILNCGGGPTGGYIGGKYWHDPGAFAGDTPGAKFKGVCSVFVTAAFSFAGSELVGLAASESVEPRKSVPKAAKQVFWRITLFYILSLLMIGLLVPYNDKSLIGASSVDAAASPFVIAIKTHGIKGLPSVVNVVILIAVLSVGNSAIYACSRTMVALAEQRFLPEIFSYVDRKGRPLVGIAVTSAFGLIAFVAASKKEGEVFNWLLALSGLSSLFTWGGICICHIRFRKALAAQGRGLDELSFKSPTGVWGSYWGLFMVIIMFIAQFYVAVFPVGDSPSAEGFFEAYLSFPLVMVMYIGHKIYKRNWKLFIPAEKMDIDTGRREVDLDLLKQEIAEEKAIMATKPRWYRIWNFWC

B1: Gap1p (Saccharomyces cerevisiae S288C; K16R/K9R) (protein)
chain: MSNTSSYERNNPDNLRHNGITIDSEFLTQEPITIPSNGSAVSIDETGSGSKWQDFKDSFKRVKPIEVDPNLSEAEKVAIITAQTPLKHHLKNRHLQMIAIGGAIGTGLLVGSGTALRTGGPASLLIGWGSTGTMIYAMVMALGELAVIFPISGGFTTYATRFIDESFGYANNFNYMLQWLVVLPLEIVSASITVNFWGTDPKYRDGFVALFWLAIVIINMFGVKGYGEAEFVFSFIKVITVVGFIILGIILNCGGGPTGGYIGGKYWHDPGAFAGDTPGAKFKGVCSVFVTAAFSFAGSELVGLAASESVEPRKSVPKAAKQVFWRITLFYILSLLMIGLLVPYNDKSLIGASSVDAAASPFVIAIKTHGIKGLPSVVNVVILIAVLSVGNSAIYACSRTMVALAEQRFLPEIFSYVDRKGRPLVGIAVTSAFGLIAFVAASKKEGEVFNWLLALSGLSSLFTWGGICICHIRFRKALAAQGRGLDELSFKSPTGVWGSYWGLFMVIIMFIAQFYVAVFPVGDSPSAEGFFEAYLSFPLVMVMYIGHKIYKRNWKLFIPAEKMDIDTGRREVDLDLLKQEIAEEKAIMATKPRWYRIWNFWC
B2: Gap1p (Saccharomyces cerevisiae S288C; A297V/K16R/K9R) (protein)
chain: MSNTSSYERNNPDNLRHNGITIDSEFLTQEPITIPSNGSAVSIDETGSGSKWQDFKDSFKRVKPIEVDPNLSEAEKVAIITAQTPLKHHLKNRHLQMIAIGGAIGTGLLVGSGTALRTGGPASLLIGWGSTGTMIYAMVMALGELAVIFPISGGFTTYATRFIDESFGYANNFNYMLQWLVVLPLEIVSASITVNFWGTDPKYRDGFVALFWLAIVIINMFGVKGYGEAEFVFSFIKVITVVGFIILGIILNCGGGPTGGYIGGKYWHDPGAFAGDTPGAKFKGVCSVFVTAAFSFVGSELVGLAASESVEPRKSVPKAAKQVFWRITLFYILSLLMIGLLVPYNDKSLIGASSVDAAASPFVIAIKTHGIKGLPSVVNVVILIAVLSVGNSAIYACSRTMVALAEQRFLPEIFSYVDRKGRPLVGIAVTSAFGLIAFVAASKKEGEVFNWLLALSGLSSLFTWGGICICHIRFRKALAAQGRGLDELSFKSPTGVWGSYWGLFMVIIMFIAQFYVAVFPVGDSPSAEGFFEAYLSFPLVMVMYIGHKIYKRNWKLFIPAEKMDIDTGRREVDLDLLKQEIAEEKAIMATKPRWYRIWNFWC

Columns and labels:
Gap1p [1] = target: T1, Gap1p; test: competitive inhibition of […]-glycine uptake in yeast cells; format: cell-based
Gap1p [2] = target: T2, Gap1p; test: as above; format: cell-based
[3] = substrate: NCC(=O)O; test: cells, lysate or membranes; format: cell-based, Saccharomyces cerevisiae; settings: active site (amino acid binding pocket)

Molecule	Ki (Gap1p [1])	Ki (Gap1p [2])	Km [3]
NC(=O)NCCC[C@H](N)C(=O)O [citrulline]	~35.6 µM	~36.6 µM	
B1			20.0 ± 5.3 µM
B2			12.7 ± 1.12 µM
